Experimental data reported in PubChem BioAssay AID256 (DTP/NCI, 2004).
“And” between values parts separate entries of the source, which are not always exact repeats. Equal entries are not always repeated. Inconclusive results and toxic doses are left out. How the source made its calls: active means survival T/C of 150% or more; inactive means T/C below 125% in these data.

Test system: CD2F1 mice, L1210 leukemia ip, survival T/C
Test: NCI In Vivo Anticancer Drug Screen. Data for tumor model L1210 Leukemia (intraperitoneal) in CD2F1 (CDF1) mice
Conditions: higher = longer survival
Method in brief: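 In this screen, transplantable tumors were grown in mice given either the compound or its vehicle. Results were expressed as the treated measurement relative to the control measurement.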

[1] = endpoint: mean survival time, dose: 25.0 mg/kg/injection, schedule: Q01DX009 (ip), vehicle: saline with Tween-80
[2] = endpoint: mean survival time, dose: 50.0 mg/kg/injection, schedule: Q01DX009 (ip), vehicle: saline with Tween-80
[3] = endpoint: mean survival time, dose: 100.0 mg/kg/injection, schedule: Q04DX003 (ip), vehicle: saline with Tween-80
[4] = endpoint: mean survival time, dose: 200.0 mg/kg/injection, schedule: Q04DX003 (ip), vehicle: saline with Tween-80
[5] = endpoint: mean survival time, dose: 100.0 mg/kg/injection, schedule: Q01DX009 (ip), vehicle: saline with Tween-80
[6] = endpoint: mean survival time, dose: 200.0 mg/kg/injection, schedule: Q01DX009 (ip), vehicle: saline with Tween-80
[7] = endpoint: mean survival time, dose: 12.5 mg/kg/injection, schedule: Q01DX009 (ip), vehicle: saline with Tween-80

Measured: T/C

O=[N+]([O-])c1cc2ccccc2c(O)c1O
inactive: [1] 102 % of control | [2] 108 % of control | [3] 91 % of control

CSc1ccc(N2C(N)=NC(N)=NC2(C)C)cc1
inactive: endpoint: mean survival time, dose: 25.0 mg/kg/injection, schedule: Q04DX002 (ip), vehicle: saline 95 % of control | endpoint: mean survival time, dose: 50.0 mg/kg/injection, schedule: Q04DX002 (ip), vehicle: saline 91 % of control

N#Cc1c(Cl)cc(C2(O)C3C=CC2CC3)cc1Cl (stereo not given)
inactive: endpoint: median survival time, dose: 25.0 mg/kg/injection, schedule: Q04DX002 (ip), vehicle: saline with Tween-80 112 % of control | endpoint: median survival time, dose: 50.0 mg/kg/injection, schedule: Q04DX002 (ip), vehicle: saline with Tween-80 100 % of control | endpoint: median survival time, dose: 100.0 mg/kg/injection, schedule: Q04DX002 (ip), vehicle: saline with Tween-80 100 % of control | endpoint: median survival time, dose: 200.0 mg/kg/injection, schedule: Q04DX002 (ip), vehicle: saline with Tween-80 112 % of control

CC(Cl)CN(CC(C)Cl)c1ccc2c(c1)Cc1cc([N+](=O)[O-])ccc1-2 (stereo not given)
inactive: [3] 93 % of control | [4] 96 % of control | endpoint: mean survival time, dose: 400.0 mg/kg/injection, schedule: Q04DX003 (ip), vehicle: saline with Tween-80 96 % of control

O=C(O)CCCCCCCCC(=O)O (tested in a mixture with another compound)
inactive: [2] 100 % of control | [5] 100 % of control | [6] 102 % of control

Nc1ncn(C2OC(COC(=O)c3ccccc3)C(OC(=O)c3ccccc3)C2OC(=O)c2ccccc2)n1 (stereo not given)
inactive: endpoint: median survival time, dose: 8.75 mg/kg/injection, schedule: Q01DX005 (ip), vehicle: distilled water + Tween-80 94 % of control | endpoint: median survival time, dose: 17.5 mg/kg/injection, schedule: Q01DX005 (ip), vehicle: distilled water + Tween-80 91 % of control | endpoint: median survival time, dose: 35.0 mg/kg/injection, schedule: Q01DX005 (ip), vehicle: distilled water + Tween-80 91 % of control | endpoint: median survival time, dose: 70.0 mg/kg/injection, schedule: Q01DX005 (ip), vehicle: distilled water + Tween-80 95 % of control | endpoint: median survival time, dose: 140.0 mg/kg/injection, schedule: Q01DX005 (ip), vehicle: distilled water + Tween-80 91 % of control

CCCOc1cc[n+]([O-])c2ccccc12
inactive: endpoint: mean survival time, dose: 100.0 mg/kg/injection, schedule: Q04DX002 (ip), vehicle: saline with Tween-80 94 % of control | endpoint: mean survival time, dose: 200.0 mg/kg/injection, schedule: Q04DX002 (ip), vehicle: saline with Tween-80 94 % of control

Cc1cc(O)c(C)c(C)c1Cl
inactive: [2] 102 % of control | [5] 104 % of control | [3] 94 % of control | [6] 91 % of control | [4] 98 % of control

OCC1OC(n2cnc3cncnc32)C(O)C1O (stereo not given)
inactive: endpoint: mean survival time, dose: 0.78 mg/kg/injection, schedule: Q01DX009 (ip), vehicle: saline 94 % of control and 102 % of control | endpoint: mean survival time, dose: 1.56 mg/kg/injection, schedule: Q01DX009 (ip), vehicle: saline 106 % of control and 112 % of control | endpoint: mean survival time, dose: 3.12 mg/kg/injection, schedule: Q01DX009 (ip), vehicle: saline 103 % of control and 106 % of control | endpoint: mean survival time, dose: 6.25 mg/kg/injection, schedule: Q01DX009 (ip), vehicle: saline 118 % of control and 89 % of control | endpoint: mean survival time, dose: 12.5 mg/kg/injection, schedule: Q01DX009 (ip), vehicle: saline 106 % of control | endpoint: mean survival time, dose: 25.0 mg/kg/injection, schedule: Q01DX009 (ip), vehicle: saline 119 % of control and 101 % of control

O=C(CBr)c1cccnc1
inactive: endpoint: mean survival time, dose: 6.25 mg/kg/injection, schedule: Q04DX003 (ip), vehicle: saline 95 % of control | endpoint: mean survival time, dose: 12.5 mg/kg/injection, schedule: Q04DX003 (ip), vehicle: saline 98 % of control | endpoint: mean survival time, dose: 25.0 mg/kg/injection, schedule: Q04DX003 (ip), vehicle: saline 101 % of control

CCc1ccc(C(=O)O)cc1S(=O)(=O)Cl
inactive: [7] 101 % of control | endpoint: mean survival time, dose: 12.5 mg/kg/injection, schedule: Q04DX003 (ip), vehicle: saline with Tween-80 104 % of control | [1] 97 % of control | endpoint: mean survival time, dose: 25.0 mg/kg/injection, schedule: Q04DX003 (ip), vehicle: saline with Tween-80 101 % of control | [2] 95 % of control | endpoint: mean survival time, dose: 50.0 mg/kg/injection, schedule: Q04DX003 (ip), vehicle: saline with Tween-80 103 % of control | [3] 97 % of control

COc1ccc(CCNC(=O)NC(C)(C)C)cc1OC
inactive: [5] 96 % of control | [6] 100 % of control | endpoint: mean survival time, dose: 400.0 mg/kg/injection, schedule: Q01DX009 (ip), vehicle: saline with Tween-80 93 % of control

O=C(NCCCN1CCOCC1)c1ccc(C(=O)NCCCN2CCOCC2)cc1
inactive: endpoint: mean survival time, dose: 100.0 mg/kg/injection, schedule: Q01DX001 (ip), vehicle: saline 95 % of control | endpoint: mean survival time, dose: 200.0 mg/kg/injection, schedule: Q01DX001 (ip), vehicle: saline 98 % of control | endpoint: mean survival time, dose: 400.0 mg/kg/injection, schedule: Q01DX001 (ip), vehicle: saline 101 % of control

O=C1C=CC(c2ccccc2)(c2ccccc2)C=C1
inactive: endpoint: mean survival time, dose: 100.0 mg/kg/injection, schedule: Q01DX001 (ip), vehicle: saline with Tween-80 93 % of control | endpoint: mean survival time, dose: 400.0 mg/kg/injection, schedule: Q01DX001 (ip), vehicle: saline with Tween-80 86 % of control

CCCCOC1CCC2(C)C(=CCC3C2CCC2(C)C(C(C)CCCC(C)C)CCC32)C1 (stereo not given)
inactive: endpoint: mean survival time, dose: 100.0 mg/kg/injection, schedule: Q01DX009 (sc), vehicle: steriod suspending solution 114 % of control | endpoint: mean survival time, dose: 100.0 mg/kg/injection, schedule: Q04DX003 (sc), vehicle: steriod suspending solution 91 % of control | endpoint: mean survival time, dose: 200.0 mg/kg/injection, schedule: Q01DX009 (sc), vehicle: steriod suspending solution 102 % of control | endpoint: mean survival time, dose: 200.0 mg/kg/injection, schedule: Q04DX003 (sc), vehicle: steriod suspending solution 96 % of control | endpoint: mean survival time, dose: 400.0 mg/kg/injection, schedule: Q01DX009 (sc), vehicle: steriod suspending solution 103 % of control | endpoint: mean survival time, dose: 400.0 mg/kg/injection, schedule: Q04DX003 (sc), vehicle: steriod suspending solution 102 % of control

CC1OC(n2ncc(=O)[nH]c2=O)C(O)C(O)C1O (stereo not given)
inactive: endpoint: mean survival time, dose: 12.5 mg/kg/injection, schedule: Q01DX005 (ip), vehicle: distilled water + Tween-80 105 % of control | endpoint: mean survival time, dose: 25.0 mg/kg/injection, schedule: Q01DX005 (ip), vehicle: distilled water + Tween-80 100 % of control | endpoint: mean survival time, dose: 50.0 mg/kg/injection, schedule: Q01DX005 (ip), vehicle: distilled water + Tween-80 103 % of control | endpoint: mean survival time, dose: 100.0 mg/kg/injection, schedule: Q01DX005 (ip), vehicle: distilled water + Tween-80 103 % of control | endpoint: mean survival time, dose: 200.0 mg/kg/injection, schedule: Q01DX005 (ip), vehicle: distilled water + Tween-80 107 % of control

C=C(c1ccc(OC)c(OC)c1)c1nccc2cc(OC)c(OC)cc12
inactive: endpoint: median survival time, dose: 50.0 mg/kg/injection, schedule: Q01DX009 (ip), vehicle: Klucel (hydroxypropylcellulose) (HPC) 101 % of control | endpoint: median survival time, dose: 100.0 mg/kg/injection, schedule: Q01DX009 (ip), vehicle: Klucel (hydroxypropylcellulose) (HPC) 89 % of control | endpoint: median survival time, dose: 200.0 mg/kg/injection, schedule: Q01DX009 (ip), vehicle: Klucel (hydroxypropylcellulose) (HPC) 95 % of control | endpoint: median survival time, dose: 400.0 mg/kg/injection, schedule: Q01DX009 (ip), vehicle: Klucel (hydroxypropylcellulose) (HPC) 97 % of control | endpoint: median survival time, dose: 800.0 mg/kg/injection, schedule: Q01DX009 (ip), vehicle: Klucel (hydroxypropylcellulose) (HPC) 108 % of control

O=P1(Oc2ccccc2)NCC(Br)CO1 (stereo not given)
inactive: endpoint: mean survival time, dose: 18.8 mg/kg/injection, schedule: Q01DX001 (ip), vehicle: other 98 % of control | endpoint: mean survival time, dose: 31.25 mg/kg/injection, schedule: Q01DX001 (ip), vehicle: other 104 % of control | endpoint: mean survival time, dose: 37.5 mg/kg/injection, schedule: Q01DX001 (ip), vehicle: other 98 % of control | endpoint: mean survival time, dose: 62.5 mg/kg/injection, schedule: Q01DX001 (ip), vehicle: other 107 % of control | endpoint: mean survival time, dose: 75.0 mg/kg/injection, schedule: Q01DX001 (ip), vehicle: other 105 % of control | endpoint: mean survival time, dose: 125.0 mg/kg/injection, schedule: Q01DX001 (ip), vehicle: other 94 % of control | endpoint: mean survival time, dose: 150.0 mg/kg/injection, schedule: Q01DX001 (ip), vehicle: other 113 % of control | endpoint: mean survival time, dose: 250.0 mg/kg/injection, schedule: Q01DX001 (ip), vehicle: other 100 % of control | endpoint: mean survival time, dose: 300.0 mg/kg/injection, schedule: Q01DX001 (ip), vehicle: other 107 % of control | endpoint: mean survival time, dose: 500.0 mg/kg/injection, schedule: Q01DX001 (ip), vehicle: other 100 % of control

O=C(Nc1cccnc1)c1ccccc1
inactive: endpoint: mean survival time, dose: 6.25 mg/kg/injection, schedule: Q01DX009 (ip), vehicle: saline with Tween-80 102 % of control | [7] 102 % of control | [1] 113 % of control
